In patent US6365643B1, “Photoinitiators for cationic curing” (Th. Goldschmidt AG, priority 1999, dated 2002):
Like-named read-outs stand apart in the source and are kept apart here.

Key:
[1] = Miscibility with organopolysiloxanes containing epoxy groups; type: physicochemical
[2] = Solubility in white spirit; type: physicochemical
From the text: The solubility of the cationic photoinitiators of the invention was compared with the solubility of commercial, hydroxyl-bearing cationic photoinitiators.

SMILES: CCCCCCCCCCCCC(O)COc1ccc([I+]c2ccccc2)cc1 (stereo not drawn) [CD-1012]
- miscibility with organopolysiloxanes containing epoxy groups [1]: no miscibility
- solubility in white spirit [2]: insoluble
- solubility in white spirit ([2]; Table 1, Comparison 1): insoluble
